# Test results as given in patent publication US11292796B2 (SIGNAL PHARMACEUTICALS, LLC, priority 2008, dated 2022).
# Molecular target: T1, mTOR (Homo sapiens, UniProt P42345)
# T1 construct: purchased Invitrogen PR8683A
# Assay: mTOR HTR-FRET assay
# Type: biochemical
# Settings: read-out: Act. Level (IC50 in mTor HTR-FRET assay)
# Description: The following is an example of an assay that can be used to determine the mTOR inhibitory activity of a test compound. Heteroaryl Compounds were dissolved in DMSO and prepared as 10 mM stocks and diluted appropriately for the experiments. Reagents were prepared as follows:
# “Simple TOR buffer” (used to dilute high glycerol TOR fraction): 10 mM Tris pH 7.4, 100 mM NaCl, 0.1% Tween-20, 1 mM DTT. Invitrogen mTOR (cat #PR8683A) was diluted in this buffer to an assay concentration of 0.200 μg/mL.
# To 20 μL of the Simple mTor buffer is added 0.5 μL of test compound in DMSO. To initiate the reaction 5 μL of ATP/Substrate solution was added to 20 μL of the Simple TOR buffer solution (control) and to the compound solution prepared above.
# T1 sequence (P42345 1360-2549 limits assumed): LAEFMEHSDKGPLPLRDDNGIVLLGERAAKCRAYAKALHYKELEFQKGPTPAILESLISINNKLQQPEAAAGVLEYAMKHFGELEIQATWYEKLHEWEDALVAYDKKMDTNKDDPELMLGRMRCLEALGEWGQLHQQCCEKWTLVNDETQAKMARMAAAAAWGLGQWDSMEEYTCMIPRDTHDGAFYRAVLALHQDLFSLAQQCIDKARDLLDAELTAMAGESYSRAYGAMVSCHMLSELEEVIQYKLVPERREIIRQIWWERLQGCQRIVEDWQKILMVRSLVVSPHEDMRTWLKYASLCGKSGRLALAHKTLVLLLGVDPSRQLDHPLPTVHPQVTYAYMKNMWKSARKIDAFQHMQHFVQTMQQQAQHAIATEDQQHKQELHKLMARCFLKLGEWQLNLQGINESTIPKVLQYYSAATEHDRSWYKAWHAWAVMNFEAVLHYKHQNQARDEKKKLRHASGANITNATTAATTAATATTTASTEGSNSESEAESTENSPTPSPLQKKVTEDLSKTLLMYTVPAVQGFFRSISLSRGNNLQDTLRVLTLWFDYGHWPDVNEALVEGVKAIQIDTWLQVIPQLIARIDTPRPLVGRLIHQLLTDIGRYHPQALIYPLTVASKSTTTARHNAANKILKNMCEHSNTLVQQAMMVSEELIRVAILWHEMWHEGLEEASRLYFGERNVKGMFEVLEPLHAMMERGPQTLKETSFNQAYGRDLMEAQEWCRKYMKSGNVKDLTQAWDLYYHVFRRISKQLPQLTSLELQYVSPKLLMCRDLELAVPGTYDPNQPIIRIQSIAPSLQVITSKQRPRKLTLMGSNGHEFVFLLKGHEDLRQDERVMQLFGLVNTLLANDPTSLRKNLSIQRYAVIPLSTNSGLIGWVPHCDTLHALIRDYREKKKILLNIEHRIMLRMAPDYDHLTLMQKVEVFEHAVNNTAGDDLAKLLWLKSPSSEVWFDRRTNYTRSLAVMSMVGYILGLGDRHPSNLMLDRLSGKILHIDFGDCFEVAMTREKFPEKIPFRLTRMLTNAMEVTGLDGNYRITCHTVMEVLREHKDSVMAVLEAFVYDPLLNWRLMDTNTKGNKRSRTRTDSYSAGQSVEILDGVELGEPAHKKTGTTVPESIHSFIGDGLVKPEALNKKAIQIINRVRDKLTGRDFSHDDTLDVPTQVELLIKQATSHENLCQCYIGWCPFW
smiles,measurement,value
"Nc1ccc(-c2cnc3c(n2)N(CCC2CCOCC2)C(=O)CN3)cn1 [Example 196, 7-(6-aminopyridin-3-yl)-1-(2-(tetrahydro-2H-pyran-4-yl)ethyl)-3,4-dihydropyrazino[2,3-b]pyrazin-2(1H)-one]",IC50,0.005 to 250 nM
"O=C1CNc2ncc(-c3cnc4nc[nH]c4c3)nc2N1CCC1CCOCC1 [Example 218, 7-(1H-imidazo[4,5-b]pyridin-6-yl)-1-(2-(tetrahydro-2H-pyran-4-yl)ethyl)-3,4-dihydropyrazino[2,3-b]pyrazin-2(1H)-one]",IC50,1000 to 10000 nM
"Cc1nc(-c2nnc[nH]2)ccc1-c1cnc2c(n1)N(CCC1CCOCC1)C(C)(C)C(=O)N2 [Example 80, 3,3-dimethyl-6-(2-methyl-6-(4H-1,2,4-triazol-3-yl)pyridin-3-yl)-4-(2-(tetrahydro-2H-pyran-4-yl)ethyl)-3,4-dihydropyrazino[2,3-b]pyrazin-2(1H)-one]",IC50,0.005 to 250 nM
"Cc1nc(-c2nc[nH]n2)ccc1-c1cnc2c(n1)N(CCO)C(=O)CN2 [Example 274, 1-(2-hydroxyethyl)-7-(2-methyl-6-(1H-1,2,4-triazol-3-yl)pyridin-3-yl)-3,4-dihydropyrazino[2,3-b]pyrazin-2(1H)-one]",IC50,0.005 to 250 nM
"CO[C@H]1CC[C@H](CN2C(=O)CNc3ncc(-c4cnc(-c5nc[nH]n5)cc4C)nc32)CC1 [Example 204, 1-((trans-4-methoxycyclohexyl)methyl)-7-(4-methyl-6-(1H-1,2,4-triazol-3-yl)pyridin-3-yl)-3,4-dihydropyrazino[2,3-b]pyrazin-2(1H)-one]",IC50,0.005 to 250 nM
"Cc1cc(-c2nnc[nH]2)ccc1-c1cnc2c(n1)NC1(CCC1)C(=O)N2 [Example 65, 7′-(2-methyl-4-(4H-1,2,4-triazol-3-yl)phenyl)-1′H-spiro[cyclobutane-1,2′-pyrazino[2,3-b]pyrazin]-3′(4′H)-one]",IC50,250 to 500 nM
"COCCN1CCN2c3nc(-c4ccc(-c5nnc[nH]5)cc4C)cnc3NC(=O)C2C1 (centres unmarked) [Example 98, 9-(4-(4H-1,2,4-triazol-3-yl)-2-methylphenyl)-3-(2-methoxyethyl)-6,11,4a-trihydropiperazino[1,2-e]pyrazino[2,3-b]pyrazin-5-one]",IC50,250 to 500 nM
"COCCN1C(=O)CNc2ncc(-c3cccc4[nH]ncc34)nc21 [Example 188, 7-(1H-indazol-4-yl)-1-(2-methoxyethyl)-3,4-dihydropyrazino[2,3-b]pyrazin-2(1H)-one]",IC50,1000 to 10000 nM
"COCCCN1CC(=O)Nc2ncc(-c3ccc(C(C)(C)O)nc3)nc21 [Example 114, 6-(6-(2-hydroxypropan-2-yl)pyridin-3-yl)-4-(3-methoxypropyl)-3,4-dihydropyrazino[2,3-b]pyrazin-2(1H)-one]",IC50,1000 to 10000 nM
"Nc1cc(-c2cnc3c(n2)N(CCC2CCOCC2)C(=O)CN3)ccn1 [Example 183, 7-(2-aminopyridin-4-yl)-1-(2-(tetrahydro-2H-pyran-4-yl)ethyl)-3,4-dihydropyrazino[2,3-b]pyrazin-2(1H)-one]",IC50,500 to 1000 nM
"Cc1cc(-c2nnc[nH]2)ccc1-c1cnc2c(n1)NCC(=O)N2 [Example 73, 6-(2-methyl-4-(4H-1,2,4-triazol-3-yl)phenyl)-3,4-dihydropyrazino[2,3-b]pyrazin-2(1H)-one]",IC50,250 to 500 nM
"O=C1CNc2ncc(-c3cncnc3)nc2N1CCC1CCOCC1 [Example 190, 7-(pyrimidin-5-yl)-1-(2-(tetrahydro-2H-pyran-4-yl)ethyl)-3,4-dihydropyrazino[2,3-b]pyrazin-2(1H)-one]",IC50,1000 to 10000 nM
"CO[C@@H]1CC[C@H](N2CC(=O)Nc3ncc(-c4ccc(C(C)(C)O)nc4)nc32)C1 [Example 52, 6-(6-(2-hydroxypropan-2-yl)pyridin-3-yl)-4-((1S,3R)-3-methoxycyclopentyl)-3,4-dihydropyrazino[2,3-b]pyrazin-2(1H)-one]",IC50,0.005 to 250 nM
"Cc1cc(-c2nnc[nH]2)ccc1-c1cnc2c(n1)N1CCNCC1C(=O)N2 (centres unmarked) [Example 97, 9-(4-(4H-1,2,4-triazol-3-yl)-2-methylphenyl)-6,11,4a-trihydropiperazino[1,2-e]pyrazino[2,3-b]pyrazin-5-one]",IC50,0.005 to 250 nM
"Cc1cc(-c2nnc[nH]2)ccc1-c1cnc2c(n1)N(CC1CCOCC1)C(C)(C)C(=O)N2 [Example 76, 3,3-dimethyl-6-(2-methyl-4-(4H-1,2,4-triazol-3-yl)phenyl)-4-((tetrahydro-2H-pyran-4-yl)methyl)-3,4-dihydropyrazino[2,3-b]pyrazin-2(1H)-one]",IC50,0.005 to 250 nM
"CC(C)(O)c1ccc(-c2cnc3c(n2)N(CC2CCOCC2)CC(=O)N3)cc1 [Example 90, 6-(4-(2-hydroxypropan-2-yl)phenyl)-4-((tetrahydro-2H-pyran-4-yl)methyl)-3,4-dihydropyrazino[2,3-b]pyrazin-2(1H)-one]",IC50,0.005 to 250 nM
"NC(=O)c1cccc(-c2cnc3c(n2)N(CCC2CCOCC2)CC(=O)N3)c1 [Example 33, 3-(6-oxo-8-(2-(tetrahydro-2H-pyran-4-yl)ethyl)-5,6,7,8-tetrahydropyrazino[2,3-b]pyrazin-2-yl)benzamide]",IC50,500 to 1000 nM
"CO[C@@H]1CC[C@H](CN2CC(=O)Nc3ncc(-c4ccc(-c5nnc[nH]5)nc4C)nc32)C1 [Example 47, 4-(((1S,3R)-3-methoxycyclopentyl)methyl)-6-(2-methyl-6-(4H-1,2,4-triazol-3-yl)pyridin-3-yl)-3,4-dihydropyrazino[2,3-b]pyrazin-2(1H)-one]",IC50,0.005 to 250 nM
"Cc1c(-c2cnc3c(n2)N(C2CCOCC2)CC(=O)N3)ccc(-c2nc[nH]n2)c1F [Example 27, 6-(3-fluoro-2-methyl-4-(1H-1,2,4-triazol-3-yl)phenyl)-4-(tetrahydro-2H-pyran-4-yl)-3,4-dihydropyrazino[2,3-b]pyrazin-2(1H)-one]",IC50,0.005 to 250 nM
"CC(C)(O)c1ccc(-c2cnc3c(n2)N(CCN2CCOCC2)C(=O)CN3)cn1 [Example 216, 7-(6-(2-hydroxypropan-2-yl)pyridin-3-yl)-1-(2-morpholinoethyl)-3,4-dihydropyrazino[2,3-b]pyrazin-2(1H)-one]",IC50,0.005 to 250 nM
"O=C1CNc2ncc(-c3cccnc3)nc2N1CCC1CCOCC1 [Example 187, 7-(pyridin-3-yl)-1-(2-(tetrahydro-2H-pyran-4-yl)ethyl)-3,4-dihydropyrazino[2,3-b]pyrazin-2(1H)-one]",IC50,500 to 1000 nM
"CO[C@H]1CC[C@H](N2CC(=O)Nc3ncc(-c4ccc(C(C)(C)O)nc4C)nc32)CC1 [Example 82, 6-(6-(2-hydroxypropan-2-yl)-2-methylpyridin-3-yl)-4-(trans-4-methoxycyclohexyl)-3,4-dihydropyrazino[2,3-b]pyrazin-2(1H)-one]",IC50,250 to 500 nM
"COCC(=O)N1CCN2c3nc(-c4ccc(-c5nnc[nH]5)cc4C)cnc3NC(=O)C2C1 (centres unmarked) [Example 96, 9-(4-(4H-1,2,4-triazol-3-yl)-2-methylphenyl)-3-(2-methoxyacetyl)-6,11,4a-trihydropiperazino[1,2-e]pyrazino[2,3-b]pyrazin-5-one]",IC50,0.005 to 250 nM
"Cc1nc(-c2nnc[nH]2)ccc1-c1cnc2c(n1)N(CC1CCCC1)CC(=O)N2 [Example 99, 4-(cyclopentylmethyl)-6-(2-methyl-6-(4H-1,2,4-triazol-3-yl)pyridin-3-yl)-3,4-dihydropyrazino[2,3-b]pyrazin-2(1H)-one]",IC50,0.005 to 250 nM
"COCCN1C(=O)CNc2ncc(-c3ccc4cn[nH]c4c3)nc21 [Example 189, 7-(1H-indazol-6-yl)-1-(2-methoxyethyl)-3,4-dihydropyrazino[2,3-b]pyrazin-2(1H)-one]",IC50,1000 to 10000 nM
"CO[C@H]1CC[C@H](CN2C(=O)CNc3ncc(-c4cc(F)c(-c5nc[nH]n5)cc4C)nc32)CC1 [Example 150, 7-(5-fluoro-2-methyl-4-(1H-1,2,4-triazol-3-yl)phenyl)-1-((trans-4-methoxycyclohexyl)methyl)-3,4-dihydropyrazino[2,3-b]pyrazin-2(1H)-one]",IC50,0.005 to 250 nM
"C[C@@H](O)c1ccc(-c2cnc3c(n2)N(CCC2CCOCC2)CC(=O)N3)cn1 [Example 75, (R)-6-(6-(1-hydroxyethyl)pyridin-3-yl)-4-(2-(tetrahydro-2H-pyran-4-yl)ethyl)-3,4-dihydropyrazino[2,3-b]pyrazin-2(1H)-one]",IC50,0.005 to 250 nM
"CO[C@H]1CC[C@@H](N2CC(=O)Nc3ncc(-c4ccc(C(C)(C)O)nc4)nc32)C1 [Example 51, 6-(6-(2-hydroxypropan-2-yl)pyridin-3-yl)-4-((1R,3S)-3-methoxycyclopentyl)-3,4-dihydropyrazino[2,3-b]pyrazin-2(1H)-one]",IC50,0.005 to 250 nM
"CO[C@H]1CC[C@H](N2C(=O)CNc3ncc(-c4ccc(C(C)(C)O)cc4)nc32)CC1 [Example 233, 7-(4-(2-hydroxypropan-2-yl)phenyl)-1-(trans-4-methoxycyclohexyl)-3,4-dihydropyrazino[2,3-b]pyrazin-2(1H)-one]",IC50,0.005 to 250 nM
"Cc1cc(-c2nc[nH]n2)c(F)cc1-c1cnc2c(n1)N(C[C@H]1CC[C@H](O)CC1)C(=O)CN2 [Example 168, 7-(5-fluoro-2-methyl-4-(1H-1,2,4-triazol-3-yl)phenyl)-1-((trans-4-hydroxycyclohexyl)methyl)-3,4-dihydropyrazino[2,3-b]pyrazin-2(1H)-one]",IC50,0.005 to 250 nM
"CO[C@@H]1CC[C@H](CN2CC(=O)Nc3ncc(-c4ccc(C(C)(C)O)nc4)nc32)C1 [Example 58, 6-(6-(2-hydroxypropan-2-yl)pyridin-3-yl)-4-(((1S,3R)-3-methoxycyclopentyl)methyl)-3,4-dihydropyrazino[2,3-b]pyrazin-2(1H)-one]",IC50,0.005 to 250 nM
"CO[C@@H]1CC[C@@H](N2CC(=O)Nc3ncc(-c4ccc(-c5nnc[nH]5)nc4C)nc32)C1 [Example 40, 4-((1R,3R)-3-methoxycyclopentyl)-6-(2-methyl-6-(4H-1,2,4-triazol-3-yl)pyridin-3-yl)-3,4-dihydropyrazino[2,3-b]pyrazin-2(1H)-one]",IC50,0.005 to 250 nM
